Calls of active or inactive are those of the source. The rule behind the calls is not given here.
Test system: CCRIS mutagenicity, Ames/micronucleus/aberration tests
Experiment: CCRIS mutagenicity studies
[1] = Test System: AMES SALMONELLA TYPHIMURIUM, Strain/Indicator: TA98, Metabolic Activation: NONE, Method: PREINCUBATION
[2] = Test System: AMES SALMONELLA TYPHIMURIUM, Strain/Indicator: TA98, Metabolic Activation: RAT, LIVER, S-9, AROCLOR 1254 (10%), Method: PREINCUBATION
[3] = Test System: AMES SALMONELLA TYPHIMURIUM, Strain/Indicator: TA100, Metabolic Activation: NONE, Method: PREINCUBATION
[4] = Test System: AMES SALMONELLA TYPHIMURIUM, Strain/Indicator: TA100, Metabolic Activation: RAT, LIVER, S-9, AROCLOR 1254 (10%), Method: PREINCUBATION
[5] = Test System: AMES SALMONELLA TYPHIMURIUM, Strain/Indicator: TA1535, Metabolic Activation: NONE, Method: PREINCUBATION
[6] = Test System: AMES SALMONELLA TYPHIMURIUM, Strain/Indicator: TA1537, Metabolic Activation: NONE, Method: PREINCUBATION
[7] = Test System: AMES SALMONELLA TYPHIMURIUM, Strain/Indicator: TA97, Metabolic Activation: NONE, Method: PREINCUBATION

With `CCN` the mutagenic call (Test System: AMES SALMONELLA TYPHIMURIUM, Strain/Indicator: TA98, Metabolic Activation: HAMSTER, LIVER, S-9, AROCLOR 1254 (10%), Method: PREINCUBATION) was “inactive; negative”, the mutagenic call [1] was “inactive; negative” and the mutagenic call [2] was “inactive; negative”. The mutagenic call (Test System: AMES SALMONELLA TYPHIMURIUM, Strain/Indicator: TA100, Metabolic Activation: HAMSTER, LIVER, S-9, AROCLOR 1254 (10%), Method: PREINCUBATION) was “inactive; negative”, the mutagenic call [3] was “inactive; negative” and the mutagenic call [4] was “inactive; negative”. The mutagenic call (Test System: AMES SALMONELLA TYPHIMURIUM, Strain/Indicator: TA1535, Metabolic Activation: HAMSTER, LIVER, S-9, AROCLOR 1254 (10%), Method: PREINCUBATION) was “inactive; negative”, the mutagenic call [5] was “inactive; negative” and the mutagenic call (Test System: AMES SALMONELLA TYPHIMURIUM, Strain/Indicator: TA1535, Metabolic Activation: RAT, LIVER, S-9, AROCLOR 1254 (10%), Method: PREINCUBATION) was “inactive; negative”. For the same compound, the mutagenic call (Test System: AMES SALMONELLA TYPHIMURIUM, Strain/Indicator: TA1537, Metabolic Activation: HAMSTER, LIVER, S-9, AROCLOR 1254 (10%), Method: PREINCUBATION) was “inactive; negative”, the mutagenic call [6] was “inactive; negative” and the mutagenic call (Test System: AMES SALMONELLA TYPHIMURIUM, Strain/Indicator: TA1537, Metabolic Activation: RAT, LIVER, S-9, AROCLOR 1254 (10%), Method: PREINCUBATION) was “inactive; negative”.

With `O=c1c2[nH]c3ccccc3c2nnn1/N=C/c1ccc(Cl)cc1` the mutagenic call [7] was “inactive; negative”, the mutagenic call (Test System: AMES SALMONELLA TYPHIMURIUM, Strain/Indicator: TA97, Metabolic Activation: RAT, LIVER, S-9, AROCLOR 1254 (10%), Method: PREINCUBATION) was “active; positive” and the mutagenic call [1] was “active; positive”. For the same compound, the mutagenic call [2] was “active; positive”, the mutagenic call [3] was “inactive; negative” and the mutagenic call [4] was “active; positive”. For the same compound, the mutagenic call (Test System: AMES SALMONELLA TYPHIMURIUM, Strain/Indicator: TA102, Metabolic Activation: NONE, Method: PREINCUBATION) was “inactive; negative” and the mutagenic call (Test System: AMES SALMONELLA TYPHIMURIUM, Strain/Indicator: TA102, Metabolic Activation: RAT, LIVER, S-9, AROCLOR 1254 (10%), Method: PREINCUBATION) was “inactive; negative”.

With `COCCOC(C)=O` the mutagenic call (End Point: IN VITRO CHROMOSOMAL ABERRATIONS, Test System: CHO-LB CELLS, Metabolic Activation: NONE) was “inactive; negative”, the mutagenic call (End Point: IN VITRO CHROMOSOMAL ABERRATIONS, Test System: CHO-LB CELLS, Metabolic Activation: RAT, LIVER, S-9, AROCLOR 1254) was “active; positive” and the mutagenic call (Test System: AMES SALMONELLA TYPHIMURIUM, Strain/Indicator: TA97, Metabolic Activation: HAMSTER, LIVER, S-9, AROCLOR 1254 (10 OR 30%), Method: PREINCUBATION) was “inactive; negative”. For the same compound, the mutagenic call [7] was “inactive; negative”, the mutagenic call (Test System: AMES SALMONELLA TYPHIMURIUM, Strain/Indicator: TA97, Metabolic Activation: RAT, LIVER, S-9, AROCLOR 1254 (10 OR 30%), Method: PREINCUBATION) was “inactive; negative” and the mutagenic call (Test System: AMES SALMONELLA TYPHIMURIUM, Strain/Indicator: TA98, Metabolic Activation: HAMSTER, LIVER, S-9, AROCLOR 1254 (10 OR 30%), Method: PREINCUBATION) was “inactive; negative”. For the same compound, the mutagenic call [1] was “inactive; negative”, the mutagenic call (Test System: AMES SALMONELLA TYPHIMURIUM, Strain/Indicator: TA98, Metabolic Activation: RAT, LIVER, S-9, AROCLOR 1254 (10 OR 30%), Method: PREINCUBATION) was “inactive; negative” and the mutagenic call (Test System: AMES SALMONELLA TYPHIMURIUM, Strain/Indicator: TA100, Metabolic Activation: HAMSTER, LIVER, S-9, AROCLOR 1254 (10 OR 30%), Method: PREINCUBATION) was “inactive; negative”. For the same compound, the mutagenic call [3] was “inactive; negative”, the mutagenic call (Test System: AMES SALMONELLA TYPHIMURIUM, Strain/Indicator: TA100, Metabolic Activation: RAT, LIVER, S-9, AROCLOR 1254 (10 OR 30%), Method: PREINCUBATION) was “inactive; negative” and the mutagenic call (Test System: AMES SALMONELLA TYPHIMURIUM, Strain/Indicator: TA1535, Metabolic Activation: HAMSTER, LIVER, S-9, AROCLOR 1254 (10 OR 30%), Method: PREINCUBATION) was “inactive; negative”. For the same compound, the mutagenic call [5] was “inactive; negative”, the mutagenic call (Test System: AMES SALMONELLA TYPHIMURIUM, Strain/Indicator: TA1535, Metabolic Activation: RAT, LIVER, S-9, AROCLOR 1254 (10 OR 30%), Method: PREINCUBATION) was “inactive; negative” and the mutagenic call (Test System: AMES SALMONELLA TYPHIMURIUM, Strain/Indicator: TA1537, Metabolic Activation: HAMSTER, LIVER, S-9, AROCLOR 1254 (30%), Method: PREINCUBATION) was “inactive; negative”. The mutagenic call [6] was “inactive; negative” and the mutagenic call (Test System: AMES SALMONELLA TYPHIMURIUM, Strain/Indicator: TA1537, Metabolic Activation: RAT, LIVER, S-9, AROCLOR 1254 (30%), Method: PREINCUBATION) was “inactive; negative”.
